Laboratory results: US10111874B2, “Combination therapies for treatment of cancer” (Araxes Pharma LLC, priority 2014, dated 2018)

molecular target: T1, KRAS G12C 1-169, his-tagged protein, GDP-loaded (Homo sapiens, UniProt P01116, G12C); experiment: Biochemical assay: covalent binding to KRAS G12C analyzed by mass spectrometry; conditions: determined at 2 hrs; note: test concentration or dose not given here
T1 construct: KRAS G12C 1-169, his-tagged protein, GDP-loaded
T1 sequence (P01116 1-169 isoform P01116-2 G12C): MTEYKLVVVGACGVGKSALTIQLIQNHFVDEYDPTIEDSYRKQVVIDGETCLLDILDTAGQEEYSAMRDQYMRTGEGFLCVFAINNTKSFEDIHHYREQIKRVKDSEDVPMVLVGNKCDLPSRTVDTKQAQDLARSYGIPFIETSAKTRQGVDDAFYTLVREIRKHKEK

Row | SMILES | Binding %
1 | C=CC(=O)N1CC(N2CCN(C(=O)CNc3cc(C(C)C)c(Cl)cc3O)CC2)C1 [II-50, 1-(3-(4-(2-(4-Chloro-2-hydroxy-5-isopropylphenylamino)acetyl)piperazin-1-yl)azetidin-1-yl)prop-2-en-1-one] | ++ (++indicates binding activity greater than 20%)
2 | C=CC(=O)N1CC(N2CCN(C(=O)CNc3cc(C4CC4)c(Cl)cc3O)CC2C(N)=O)C1 (centres unmarked) [II-51, 1-(1-acryloylazetidin-3-yl)-4-(2-(4-chloro-5-cyclopropyl-2-hydroxyphenylamino)acetyl)piperazine-2-carboxamide] | ++ (++indicates binding activity greater than 20%)
3 | C=CC(=O)N1CC(N2CCN(C(=O)CNc3cc(Cl)c(CC)cc3O)CC2)C1 [II-52, 1-(3-(4-(2-(5-chloro-4-ethyl-2-hydroxyphenylamino)acetyl)piperazin-1-yl)azetidin-1-yl)prop-2-en-1-one] | + (+indicates binding activity from 5% to 20%)
4 | C=CC(=O)N1CC(N2CCN(C(=O)CNc3cc(C4CCC4)c(Cl)cc3O)CC2)C1 [II-53, 1-(3-(4-(2-(4-chloro-5-cyclobutyl-2-hydroxyphenylamino)acetyl)piperazin-1-yl)azetidin-1-yl)prop-2-en-1-one] | ++ (++indicates binding activity greater than 20%)
5 | C=CC(=O)N1CC(N2CCN(C(=O)CNc3cc(C4CC4)c(Cl)cc3O)CC2CO)C1 (centres unmarked) [II-54, 1-(3-(4-(2-(4-Chloro-5-cyclopropyl-2-hydroxyphenylamino)acetyl)-2-(hydroxymethyl)piperazin-1-yl)azetidin-1-yl)prop-2-en-1-one] | ++ (++indicates binding activity greater than 20%)
6 | C=CC(=O)N1CC(N2CCN(C(=O)CNc3cc(CC)c(Cl)cc3O)CC2)C1 [II-55, 1-(3-(4-(2-(4-chloro-5-ethyl-2-hydroxyphenylamino)acetyl)piperazin-1-yl)azetidin-1-yl)prop-2-en-1-one] | ++ (++indicates binding activity greater than 20%)
7 | C=CC(=O)N1CC(N2CCN(C(=O)CNc3cc(C4CC4(F)F)c(Cl)cc3O)CC2)C1 (centres unmarked) [II-56, 1-(3-(4-((4-chloro-5-(2,2-difluorocyclopropyl)-2-hydroxyphenyl)glycyl)piperazin-1-yl)azetidin-1-yl)prop-2-en-1-one] | ++ (++indicates binding activity greater than 20%)
8 | C=CC(=O)N1CC(N2CCN(C(=O)CNc3cc(CC(F)(F)F)c(Cl)cc3O)CC2)C1 [II-57, 1-(3-(4-(2-((4-Chloro-2-hydroxy-5-(2,2,2-trifluoroethyl)phenyl)amino)acetyl)piperazin-1-yl)azetidin-1-yl)prop-2-en-1-one] | ++ (++indicates binding activity greater than 20%)
9 | C=CC(=O)N1CC(N2CCN(C(=O)CCc3cc(C4CC4)c(Cl)cc3O)CC2)C1 [II-58, 1-(3-(4-(3-(4-Chloro-5-cyclopropyl-2-hydroxyphenyl)propanoyl)piperazin-1-yl)azetidin-1-yl)prop-2-en-1-one] | + (+indicates binding activity from 5% to 20%)
10 | C=CC(=O)N1CC(N2CCN(C(=O)C(C)Nc3cc(C4CCC4)c(Cl)cc3O)CC2)C1 (centres unmarked) [II-59, 1-(3-(4-(2-(4-chloro-5-cyclobutyl-2-hydroxyphenylamino)propanoyl)piperazin-1-yl)azetidin-1-yl)prop-2-en-1-one] | ++ (++indicates binding activity greater than 20%)
11 | C=CC(=O)N1CC(N2CCN(C(=O)CNc3cc(C4CC4)c(Cl)cc3O)CC2C)C1 (centres unmarked) [II-60, 1-(3-(4-(2-((4-Chloro-5-cyclopropyl-2-hydroxyphenyl)amino)acetyl)-2-methylpiperazin-1-yl)azetidin-1-yl)prop-2-en-1-one] | ++ (++indicates binding activity greater than 20%)
12 | C=CC(=O)N1CC(N2CCN(C(=O)Cc3c[nH]c4cc(Cl)c(Cl)cc34)CC2)C1 [II-61, 1-(3-(4-(2-(5,6-Dichloro-1H-indol-3-yl)acetyl)piperazin-1-yl)azetidin-1-yl)prop-2-en-1-one] | + (+indicates binding activity from 5% to 20%)
13 | C=CC(=O)N1CC(N2CCN(C(=O)/C=C/c3cc(C4CC4)c(Cl)cc3O)CC2)C1 [II-62, (E)-1-(4-(1-Acryloylazetidin-3-yl)piperazin-1-yl)-3-(4-chloro-5-cyclopropyl-2-hydroxyphenyl)prop-2-en-1-one] | + (+indicates binding activity from 5% to 20%)
14 | C=CC(=O)N1CC(N2CCN(C(=O)CNc3cc(C4CC4)c(Cl)cc3O)C[C@H]2CO)C1 [II-63, (S)-1-(3-(4-(2-(4-chloro-5-cyclopropyl-2-hydroxyphenyl-amino)acetyl)-2-(hydroxymethyl)-piperazin-1-yl)azetidin-1-yl)prop-2-en-1-one] | ++ (++indicates binding activity greater than 20%)
15 | C=CC(=O)N1CC(N2CCN(C(=O)CNc3cc(C4(C)CC4)c(Cl)cc3O)CC2)C1 [II-64, 1-(3-(4-(2-((4-Chloro-2-hydroxy-5-(1-methylcyclopropyl)phenyl)amino)acetyl)piperazin-1-yl)azetidin-1-yl)prop-2-en-1-one] | ++ (++indicates binding activity greater than 20%)
16 | C=CC(=O)N1CC(N2CCN(C(=O)CSc3cc(C4CC4)c(Cl)cc3OC)CC2)C1 [II-65, 1-(3-(4-(2-(4-Chloro-5-cyclopropyl-2-methoxyphenylthio)acetyl)piperazin-1-yl)azetidin-1-yl)prop-2-en-1-one] | + (+indicates binding activity from 5% to 20%)
17 | C=CC(=O)N1CC(N2CCN(C(=O)[C@H](C)Nc3cc(C4CC4)c(Cl)cc3O)CC2)C1 [II-67, (S)-1-(3-(4-(2-((4-Chloro-5-cyclopropyl-2-hydroxyphenyl)amino)propanoyl)piperazin-1-yl)azetidin-1-yl)prop-2-en-1-one] | ++ (++indicates binding activity greater than 20%)
18 | C=CC(=O)N1CC(N2CCN(C(=O)[C@@H](C)Nc3cc(C4CC4)c(Cl)cc3O)CC2)C1 [II-68, (R)-1-(3-(4-(2-(4-chloro-5-cyclopropyl-2-hydroxyphenylamino)-propanoyl)piperazin-1-yl)azetidin-1-yl)prop-2-en-1-one] | ++ (++indicates binding activity greater than 20%)
19 | C=CC(=O)N1CC(N2CCN(C(=O)[C@H](C)Nc3cc(CC)c(Cl)cc3O)CC2)C1 [II-69, (S)-1-(3-(4-(2-((4-Chloro-5-ethyl-2-hydroxyphenyl)amino)propanoyl)piperazin-1-yl)azetidin-1-yl)prop-2-en-1-one] | ++ (++indicates binding activity greater than 20%)
20 | C=CC(=O)N1CC(N2CCN(C(=O)[C@@H](C)Nc3cc(CC)c(Cl)cc3O)CC2)C1 [II-70, (R)-1-(3-(4-(2-(4-chloro-5-ethyl-2-hydroxyphenylamino)-propanoyl)piperazin-1-yl)azetidin-1-yl)prop-2-en-1-one] | ++ (++indicates binding activity greater than 20%)
21 | C=CC(=O)N1CC(N2CCN(C(=O)CNc3cc(C4CC4)c(Cl)cc3C#N)CC2)C1 [II-71, 2-((2-(4-(1-Acryloylazetidin-3-yl)piperazin-1-yl)-2-oxoethyl)amino)-5-chloro-4-cyclopropylbenzonitrile] | + (+indicates binding activity from 5% to 20%)
22 | C=CC(=O)N1CC(N2CCN(c3cc(-c4cc(CC)c(Cl)cc4O)n[nH]3)CC2)C1 [II-72, 1-(3-(4-(3-(4-chloro-5-ethyl-2-hydroxyphenyl)-1H-pyrazol-5-yl)piperazin-1-yl)azetidin-1-yl)prop-2-en-1-one] | + (+indicates binding activity from 5% to 20%)
23 | C=CC(=O)N1CC(N2CCN(C(=O)C3CCCN3c3cc(C4CC4)c(Cl)cc3OC)CC2)C1 (centres unmarked) [II-73, 1-(3-(4-(1-(4-chloro-5-cyclopropyl-2-methoxyphenyl)-pyrrolidine-2-carbonyl)piperazin-1-yl)azetidin-1-yl)prop-2-en-1-one] | + (+indicates binding activity from 5% to 20%)
24 | C=CC(=O)N1CC(N2CCN(C(=O)Cn3ccc4c(Cl)c(Cl)cc(OC)c43)CC2)C1 [II-75, 1-(3-(4-(2-(4,5-dichloro-7-methoxy-1H-indol-1-yl)acetyl)piperazin-1-yl)azetidin-1-yl)prop-2-en-1-one] | + (+indicates binding activity from 5% to 20%)
25 | C=CC(=O)N1CCN(C(=O)c2cc(-c3ccc(Cl)cc3)c(Cl)cc2O)CC1C#N (centres unmarked) [III-37, 1-acryloyl-4-(4′,6-dichloro-4-hydroxybiphenylcarbonyl)piperazine-2-carbonitrile] | ++ (++indicates binding activity greater than 20%)
26 | C=CC(=O)N1CCN(C(=O)c2cc(Cl)c(-c3ccccc3)cc2O)CC1 [III-42, 1-(4-(2-Chloro-5-hydroxy-[1,1′-biphenyl]-4-carbonyl)piperazin-1-yl)prop-2-en-1-one] | + (+indicates binding activity from 5% to 20%)

same assay, conditions: determined at 24 hrs

Row | SMILES | Binding %
27 | C=CC(=O)N1CC(N2CCN(C(=O)C(CC)Nc3cc(Cl)c(Cl)cc3O)CC2)C1 (centres unmarked) [II-49, 1-(4-(1-acryloylazetidin-3-yl)piperazin-1-yl)-2-(4,5-dichloro-2-hydroxyphenyl-amino)butan-1-one] | ++++ (++++indicates binding activity greater than 50%)
28 | C=CC(=O)N1CCN(C(=O)c2cc(-c3cc(Cl)ccc3Cl)c(Cl)cc2OC)C(CO)C1 (centres unmarked) [III-7, 1-(3-(Hydroxymethyl)-4-(2′,5′,6-trichloro-4-methoxy-[1,1′-biphenyl]-3-carbonyl)piperazin-1-yl)prop-2-en-1-one] | +++ (+++indicates binding activity greater than 20% and up to 30%)
29 | C=CC(=O)N1CCN(C(=O)c2cc(-c3ccc(Cl)cc3Cl)c[nH]2)CC1 [III-32, 1-(4-(4-(2,4-Dichlorophenyl)-1H-pyrrole-2-carbonyl)piperazin-1-yl)prop-2-en-1-one] | ++++ (++++indicates binding activity greater than 30%)
